Literature values in patent US20170369926A1, “NEW MARKERS FOR EARLY DIAGNOSIS OF OVARIAN CANCER, MONITORING DURING THERAPY, AND NEW THERAPY OPTIONS DURING AND AFTER CHEMOTHERAPY” (Bioventures, LLC, priority 2011, published 2017).

Legend:
plasma kallikrein = plasma kallikrein (Homo sapiens, UniProt P03952); conditions: from reference (15)
hepsin = hepsin (Homo sapiens, UniProt P05981); conditions: literature statement
Chain of hepsin (P05981 whole entry): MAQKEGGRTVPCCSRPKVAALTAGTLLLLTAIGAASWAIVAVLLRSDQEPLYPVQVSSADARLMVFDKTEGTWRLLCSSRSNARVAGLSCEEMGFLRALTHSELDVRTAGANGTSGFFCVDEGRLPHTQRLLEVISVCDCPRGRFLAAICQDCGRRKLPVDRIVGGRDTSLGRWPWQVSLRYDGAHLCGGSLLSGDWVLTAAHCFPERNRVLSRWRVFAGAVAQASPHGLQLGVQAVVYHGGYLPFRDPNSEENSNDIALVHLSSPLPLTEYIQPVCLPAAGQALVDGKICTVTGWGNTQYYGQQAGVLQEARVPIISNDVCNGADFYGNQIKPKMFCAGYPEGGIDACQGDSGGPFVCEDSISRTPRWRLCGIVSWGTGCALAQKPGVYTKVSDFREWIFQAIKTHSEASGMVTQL

Chain of plasma kallikrein (P03952 20-638, species assumed): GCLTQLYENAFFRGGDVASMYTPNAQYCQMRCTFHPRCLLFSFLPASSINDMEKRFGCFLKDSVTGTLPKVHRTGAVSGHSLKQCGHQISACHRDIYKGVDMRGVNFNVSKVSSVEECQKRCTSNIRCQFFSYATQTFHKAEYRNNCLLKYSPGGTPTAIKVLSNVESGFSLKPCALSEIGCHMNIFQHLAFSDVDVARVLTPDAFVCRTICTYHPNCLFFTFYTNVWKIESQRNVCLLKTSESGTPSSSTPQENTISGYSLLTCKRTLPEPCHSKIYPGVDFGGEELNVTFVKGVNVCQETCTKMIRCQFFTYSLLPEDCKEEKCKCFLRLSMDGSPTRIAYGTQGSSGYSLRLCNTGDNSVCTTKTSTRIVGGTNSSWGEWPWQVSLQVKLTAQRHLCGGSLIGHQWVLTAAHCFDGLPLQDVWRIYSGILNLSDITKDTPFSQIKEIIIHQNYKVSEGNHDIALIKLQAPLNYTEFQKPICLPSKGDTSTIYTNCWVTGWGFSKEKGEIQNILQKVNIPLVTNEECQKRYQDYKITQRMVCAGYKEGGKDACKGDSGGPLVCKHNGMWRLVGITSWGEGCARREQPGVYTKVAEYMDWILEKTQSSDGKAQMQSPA

IC50 (plasma kallikrein) [µM]	inhibition of hepsin (hepsin)	Structure (SMILES)	effective dose by intraperitoneal injection in mice (intraperitoneal injection, reference (5)) [mg/kg]	effective dose orally in mice (oral, in food)
1.5	–	CN(C)C(=O)COC(=O)Cc1ccc(OC(=O)c2ccc(NC(=N)N)cc2)cc1.CS(=O)(=O)O [FOY-305]	20	0.1 % of the food
–	inhibits hepsin	CC(C)(Sc1cc(C(C)(C)C)c(O)c(C(C)(C)C)c1)Sc1cc(C(C)(C)C)c(O)c(C(C)(C)C)c1 [Probucol, probucol]	–	–
